Measurements published in patent EP0382636A1, “Pyrimidine derivatives, 2-[4-(alpha-heteroaryl-alpha-aryl-(alpha-alkyl)-methoxy)-butyl)-1-piperazinyl], with a serotoninergical activity” (LABORATORIOS DEL DR. ESTEVE, S.A., priority 1989, dated 1990).

Biological target: T1, récepteurs 5-HT 1A (Homo sapiens, UniProt P08908)
T1 sequence (P08908 1-422): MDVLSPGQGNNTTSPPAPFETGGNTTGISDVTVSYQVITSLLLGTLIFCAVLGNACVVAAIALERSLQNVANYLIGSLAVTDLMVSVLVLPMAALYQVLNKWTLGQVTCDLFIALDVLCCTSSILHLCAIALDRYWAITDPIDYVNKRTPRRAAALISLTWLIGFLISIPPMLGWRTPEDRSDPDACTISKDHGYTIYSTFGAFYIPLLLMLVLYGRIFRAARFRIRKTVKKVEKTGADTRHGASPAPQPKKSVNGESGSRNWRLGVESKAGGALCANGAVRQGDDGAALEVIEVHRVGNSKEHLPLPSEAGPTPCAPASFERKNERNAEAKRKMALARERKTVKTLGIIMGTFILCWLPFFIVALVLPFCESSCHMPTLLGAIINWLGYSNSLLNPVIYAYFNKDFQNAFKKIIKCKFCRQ
Assay: 5-HT 1A receptor binding (radioligand displacement)
Conditions: specific binding to 5-HT 1A receptors; test concentration not given; method cited from M. Hapon, Brain Receptor Methodologies
Excerpt: L'activité de certains composés sur le système nerveux central a été étudiée et plus précisément leur activité sérotoninergique, par leur union spécifique aux récepteurs 5-HT 1A. TABLEAU II

| SMILES | Binding 5-HT-1A déplacement (%) |
| --- | --- |
| CCCCn1ccnc1C(C)(OCCCCN1CCN(c2ncccn2)CC1)c1cccc(C(F)(F)F)c1 (centres unmarked) [Exemple 3] | 97,6% |
| O=C1c2ccccc2S(=O)(=O)N1CCCCN1CCN(c2ncccn2)CC1 [Ipsapirone, reference compound] | 99,6% |
| Cn1ccnc1C(C)(OCCCCN1CCN(c2ncccn2)CC1)c1cccc(C(F)(F)F)c1 (centres unmarked) [Exemple 4] | 98,1% |
| Cn1ccnc1C(OCCCCN1CCN(c2ncccn2)CC1)c1ccc(Cl)cc1 (centres unmarked) [Exemple 1] | 94,7% |
| CCCCn1ccnc1C(OCCCCN1CCN(c2ncccn2)CC1)c1ccc(Cl)cc1 (centres unmarked) [Exemple 5] | 91,5% |
| Cn1ccnc1C(C)(OCCCCN1CCN(c2ncccn2)CC1)c1ccc(Cl)cc1 (centres unmarked) [Exemple 2] | 98,6% |
| CCCCn1ccnc1C(OCCCCN1CCN(c2ncccn2)CC1)c1cccc(C(F)(F)F)c1 (centres unmarked) [Exemple 6] | 94,6% |
| Cn1nccc1C(C)(OCCCCN1CCN(c2ncccn2)CC1)c1ccc(Cl)cc1 (centres unmarked) [Exemple 9] | 95,0% |
| Cn1nccc1C(OCCCCN1CCN(c2ncccn2)CC1)c1ccc(Cl)cc1 (centres unmarked) [Exemple 8] | 95,0% |
| Cn1ccnc1C(OCCCCN1CCN(c2ncccn2)CC1)c1cccc(C(F)(F)F)c1 (centres unmarked) [Exemple 7] | 98,3% |
| O=C1CC2(CCCC2)CC(=O)N1CCCCN1CCN(c2ncccn2)CC1 [Buspirone, reference compound] | 99,1% |
